Measurements reported in the supplement of paper PMC10307832.

Legend:
Experiment in all cases: relative viability (nuclei count vs DMSO), 5 days (fraction); higher = more cells survive
[1] = compound: CC1(COc2ccc3c(c2)ncn3-c2ccc3cccc(N4CCC(N)CC4)c3n2)COC1 [Crenolanib] + Nc1ncn([C@H]2C[C@H](O)[C@@H](CO)O2)c(=O)n1 [Decitabine] (partner 2 µM)
Method in brief: (§1)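 Relative viability is defined as nuclei in treated wells over nuclei in vehicle wells. Duplicate plates were run and medians reported. Lung cancer cell lines in 1536-well plates were dosed by pin tool one day after seeding, with one drug or with a fixed anchor-drug dose plus five library-drug doses (not always all listed) in √10 steps, and nuclei were counted after 5 days.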

[2] = compound: O=C1NC(=O)[C@@H](c2cn3c4c(cccc24)CCC3)[C@@H]1c1c[nH]c2ccccc12 [Tivantinib] + CC(=O)Nc1cccc(-n2c(=O)n(C3CC3)c(=O)c3c(Nc4ccc(I)cc4F)n(C)c(=O)c(C)c32)c1 [Trametinib] (partner 0.02 µM)
Method in brief: as §1

[3] = compound: O=C1NC(=O)[C@@H](c2cn3c4c(cccc24)CCC3)[C@@H]1c1c[nH]c2ccccc12 [Tivantinib] + NC(=O)Nc1cc(-c2cccc(F)c2)sc1C(=O)N[C@H]1CCCNC1 [AZD7762] (partner 0.2 µM)
Method in brief: as §1

[4] = compound: CC1(COc2ccc3c(c2)ncn3-c2ccc3cccc(N4CCC(N)CC4)c3n2)COC1 [Crenolanib] + CS(=O)(=O)N1CCN(Cc2cc3nc(-c4cccc5[nH]ncc45)nc(N4CCOCC4)c3s2)CC1 [Pictilisib] (partner 1 µM)
Method in brief: as §1

| Cell Line | relative viability ([1]; first compound 0.01 µM) | relative viability ([1]; first compound 0.03162 µM) | relative viability ([1]; first compound 0.1 µM) | relative viability ([1]; first compound 0.3162 µM) | relative viability ([1]; first compound 1 µM) | relative viability ([2]; first compound 0.01 µM) | relative viability ([2]; first compound 0.03162 µM) | relative viability ([2]; first compound 0.1 µM) | relative viability ([2]; first compound 0.3162 µM) | relative viability ([3]; first compound 0.01 µM) | relative viability ([3]; first compound 0.03162 µM) | relative viability ([3]; first compound 0.1 µM) | relative viability ([3]; first compound 0.3162 µM) | relative viability ([4]; first compound 0.01 µM) | relative viability ([4]; first compound 0.03162 µM) | relative viability ([4]; first compound 0.1 µM) | relative viability ([4]; first compound 0.3162 µM) | relative viability ([4]; first compound 1 µM) |
| --- | --- | --- | --- | --- | --- | --- | --- | --- | --- | --- | --- | --- | --- | --- | --- | --- | --- | --- |
| HOP-62 | 0.222 | 0.19 | 0.29 | 0.205 | 0.234 | 0.458 | 0.346 | 0.356 | 0.37 | 0.503 | 0.62 | 0.515 | 0.667 | 0.724 | 0.946 | 0.602 | 0.768 | 0.517 |
| IA-LM | – | – | – | – | – | – | – | – | – | – | – | – | – | 0.331 | 0.305 | 0.314 | 0.64 | 0.522 |
| LC-2-ad | 0.833 | 0.844 | 0.759 | 0.818 | 0.78 | 0.912 | 0.879 | 0.851 | 0.903 | 0.776 | 0.681 | 0.817 | 0.758 | 0.5 | 0.446 | 0.434 | 0.465 | 0.375 |
| LCLC-97TM1 | 0.203 | 0.221 | 0.193 | 0.226 | 0.208 | 0.211 | 0.218 | 0.189 | 0.178 | 0.268 | 0.311 | 0.197 | 0.25 | 0.162 | 0.245 | 0.176 | 0.245 | 0.118 |
| LCLC-103H | 0.752 | 0.709 | 0.692 | 0.769 | 0.72 | 0.6 | 0.736 | 0.69 | 0.668 | 0.808 | 0.702 | 0.684 | 0.793 | 0.64 | 0.58 | 0.596 | 0.58 | 0.565 |
| LK-2 | 0.304 | 0.203 | 0.285 | 0.337 | 0.309 | 0.723 | 0.454 | 0.683 | 0.518 | 0.447 | 0.214 | 0.288 | 0.363 | 0.586 | 0.461 | 0.662 | 0.473 | 0.615 |
| LOU-NH91 | 0.863 | 0.792 | 0.822 | 0.856 | 0.853 | 0.724 | 0.762 | 0.81 | 0.691 | 0.784 | 0.719 | 0.702 | 0.738 | 0.595 | 0.525 | 0.473 | 0.56 | 0.53 |
| LU99A | 0.976 | 0.844 | 0.897 | 1.07 | 0.975 | 0.436 | 0.494 | 0.505 | 0.521 | 0.318 | 0.356 | 0.307 | 0.278 | 0.37 | 0.324 | 0.325 | 0.393 | 0.287 |
| NCI-H520 | 0.54 | 0.492 | 0.451 | 0.575 | 0.481 | 0.798 | 0.723 | 0.576 | 0.701 | – | – | – | – | 0.267 | 0.324 | 0.326 | 0.295 | 0.301 |
| NCI-H522 | 0.668 | 0.63 | 0.665 | 0.64 | 0.607 | 0.859 | 0.605 | 0.815 | 0.645 | 0.829 | 0.812 | 0.864 | 0.612 | – | – | – | – | – |
| NCI-H661 | 0.534 | 0.514 | 0.544 | 0.555 | 0.541 | 0.602 | 0.561 | 0.536 | 0.355 | – | – | – | – | 0.476 | 0.336 | 0.368 | 0.378 | 0.414 |
| NCI-H1299 | – | – | – | – | – | – | – | – | – | – | – | – | – | 0.793 | 0.825 | 0.657 | 0.878 | 0.795 |
| NCI-H1563 | – | – | – | – | – | – | – | – | – | – | – | – | – | 0.608 | 0.633 | 0.693 | 0.652 | 0.59 |
| NCI-H1648 | 0.521 | – | 0.477 | 0.467 | 0.59 | – | 0.505 | 0.343 | 0.31 | – | 0.61 | 0.767 | 0.479 | – | – | – | – | – |
| NCI-H1650 | 0.373 | 0.377 | 0.455 | 0.322 | 0.343 | 0.451 | 0.663 | 0.666 | 0.536 | – | – | – | – | 0.731 | 0.68 | 0.583 | 0.472 | 0.327 |
| NCI-H1703 | – | – | – | – | – | – | – | – | – | 0.159 | 0.152 | 0.114 | 0.124 | 0.237 | 0.238 | 0.212 | 0.209 | 0.228 |
| NCI-H2009 | 0.395 | 0.367 | 0.367 | 0.364 | 0.416 | 0.328 | 0.246 | 0.273 | 0.238 | – | – | – | – | 0.854 | 0.803 | 0.738 | 0.708 | 0.532 |
| NCI-H2023 | 0.153 | 0.266 | 0.242 | 0.263 | 0.213 | 0.593 | 0.551 | 0.433 | 0.414 | – | – | – | – | 0.264 | 0.288 | 0.233 | 0.278 | 0.205 |
| NCI-H2228 | – | – | – | – | – | 0.608 | 0.396 | 0.494 | 0.227 | – | – | – | – | 0.372 | 0.397 | 0.272 | 0.491 | 0.361 |
| NCI-H2342 | 0.766 | 0.649 | 0.742 | 0.903 | 0.694 | 0.749 | 0.764 | 0.782 | 0.665 | 0.505 | 0.515 | 0.432 | 0.39 | – | – | – | – | – |
| SK-LU-1 | 0.666 | 0.703 | 0.533 | 0.66 | 0.653 | 0.514 | 0.549 | 0.484 | 0.472 | – | – | – | – | 0.609 | 0.494 | 0.432 | 0.62 | 0.611 |
| SK-MES-1 | 0.315 | 0.451 | 0.42 | 0.385 | 0.359 | 0.645 | 0.511 | 0.521 | 0.582 | – | – | – | – | 0.337 | 0.33 | 0.375 | 0.385 | 0.377 |
| SW 900 | 0.48 | – | 0.507 | 0.517 | 0.407 | 0.775 | 0.649 | 0.734 | 0.763 | 0.682 | 0.464 | 0.5 | 0.496 | – | – | – | – | – |
| SW 1573 | 0.333 | 0.591 | 0.518 | 0.648 | 0.52 | 0.682 | 0.488 | 0.561 | 0.452 | – | – | – | – | 0.368 | 0.521 | 0.451 | 0.656 | 0.598 |
